Measured values from ChEMBL document CHEMBL1123662, “Preparation, receptor binding, and fluorescence properties of hexestrol-fluorophore conjugates: evaluation of site of attachment, fluorophore structure, and fluorophore-ligand spacing” (J Med Chem, 1987).

Test: Estrogen receptor binding affinity using [3H]estradiol in a competitive radioreceptor binding assay.
`CCC(c1ccc(O)cc1)C(CCI)c1ccc(O)cc1` (stereo unspecified) gave a relative binding affinity (RBA) of 60. With `CCC(c1ccc(O)cc1)C(CSCCCCNc1ccc([N+](=O)[O-])c2nonc12)c1ccc(O)cc1` (stereo unspecified) the relative binding affinity (RBA) was 3.9. With `CCC(c1ccc(O)cc1)C(CC)c1ccc(O)c(CCCNc2ccc([N+](=O)[O-])cc2[N+](=O)[O-])c1` (stereo unspecified) the relative binding affinity (RBA) was 1. For `CCC(c1ccc(O)cc1)C(CC)c1ccc(O)c(CCCNS(=O)(=O)c2cccc3c(N(C)C)cccc23)c1` (stereo unspecified), the relative binding affinity (RBA) was 1.3. Compound `CCC(c1ccc(O)cc1)C(CSCCCCCCCNS(=O)(=O)c1cccc2c(N(C)C)cccc12)c1ccc(O)cc1` (stereo unspecified) has a relative binding affinity (RBA) of 2.6. `CCC(c1ccc(O)cc1)C(CC)c1ccc(O)c(CCCOC)c1` (stereo unspecified) gave a relative binding affinity (RBA) of 13.2. Work on `CCCCSCC(c1ccc(O)cc1)C(CC)c1ccc(O)cc1` (stereo unspecified) yielded a relative binding affinity (RBA) of 61.6. `CCC(c1ccc(O)cc1)C(CSCCCCCNc1ccc([N+](=O)[O-])c2nonc12)c1ccc(O)cc1` (stereo unspecified) gave a relative binding affinity (RBA) of 3.5. Compound `CCC(c1ccc(O)cc1)C(CO)c1ccc(O)cc1` (stereo unspecified) has a relative binding affinity (RBA) of 8.9. `CCC(c1ccc(O)cc1)C(C)c1ccc(O)cc1` (stereo unspecified) gave a relative binding affinity (RBA) of 133. For `CCC(c1ccc(O)cc1)C(CSCCCNc1ccc([N+](=O)[O-])c2nonc12)c1ccc(O)cc1` (stereo unspecified), the relative binding affinity (RBA) was 4.3. For `CCC(c1ccc(O)cc1)C(CC)c1ccc(O)c(CCCOCc2ccccc2)c1` (stereo unspecified), the relative binding affinity (RBA) was 5. `CCC(c1ccc(O)cc1)C(CC)c1ccc(O)c(CCCO)c1` (stereo unspecified) showed a relative binding affinity (RBA) of 12. For `CCC(c1ccc(O)cc1)C(CSCCCCN1C(=O)c2ccccc2C1=O)c1ccc(O)cc1` (stereo unspecified), the relative binding affinity (RBA) was 3.6. `CCC(c1ccc(O)cc1)C(CC)c1ccc(O)c(CCCN2C(=O)c3cccc(N)c3C2=O)c1` (stereo unspecified) gave a relative binding affinity (RBA) of 7.4. Compound `CCCCCOC(=O)CC(c1ccc(O)cc1)C(CC)c1ccc(O)cc1` (stereo unspecified) has a relative binding affinity (RBA) of 4.2. `CCC(c1ccc(O)cc1)C(CC)c1ccc(O)c(CCCN2C(=O)c3ccccc3C2=O)c1` (stereo unspecified) showed a relative binding affinity (RBA) of 5.4. Compound `CCC(c1ccc(O)cc1)C(CC)c1ccc(O)c(CCCNc2ccc([N+](=O)[O-])c3nonc23)c1` (stereo unspecified) has a relative binding affinity (RBA) of 1.5. `CCC(c1ccc(O)cc1)C(C(=O)OC)c1ccc(O)cc1` (stereo unspecified) gave a relative binding affinity (RBA) of 69. In the case of `CCC(c1ccc(O)cc1)C(CC)c1ccc(O)c(CCCOc2ccc([N+](=O)[O-])cc2[N+](=O)[O-])c1` (stereo unspecified), the relative binding affinity (RBA) is reported as 1.7. With `CCCCSCCC(c1ccc(O)cc1)C(CC)c1ccc(O)cc1` (stereo unspecified) the relative binding affinity (RBA) was 23.4. `CCC(c1ccc(O)cc1)C(CC)c1ccc(O)c(CCCN2C(=O)c3cccc([N+](=O)[O-])c3C2=O)c1` (stereo unspecified) gave a relative binding affinity (RBA) of 3. In the case of `CCC(c1ccc(O)cc1)C(CSCCCCCCCN1C(=O)c2ccccc2C1=O)c1ccc(O)cc1` (stereo unspecified), the relative binding affinity (RBA) is reported as 1.6. Work on `C=CCc1cc(C(CC)C(CC)c2ccc(O)cc2)ccc1O` (stereo unspecified) yielded a relative binding affinity (RBA) of 54. With `CCC(c1ccc(O)cc1)C(CC)c1ccc(O)c(N=[N+]=[N-])c1` (stereo unspecified) the relative binding affinity (RBA) was 69. With `CCC(c1ccc(O)cc1)C(CI)c1ccc(O)cc1` (stereo unspecified) the relative binding affinity (RBA) was 172. In the case of `CCC(c1ccc(O)cc1)C(CSCCCCCCNc1ccc([N+](=O)[O-])c2nonc12)c1ccc(O)cc1` (stereo unspecified), the relative binding affinity (RBA) is reported as 2.9. Compound `CCC(c1ccc(O)cc1)C(CSCCCCCCCNc1ccc([N+](=O)[O-])c2nonc12)c1ccc(O)cc1` (stereo unspecified) has a relative binding affinity (RBA) of 3.4. With `CCC(c1ccc(O)cc1)C(CSCCNc1ccc([N+](=O)[O-])c2nonc12)c1ccc(O)cc1` (stereo unspecified) the relative binding affinity (RBA) was 0.85. Work on `CCC(c1ccc(O)cc1)C(CC(=O)OC)c1ccc(O)cc1` (stereo unspecified) yielded a relative binding affinity (RBA) of 20. `CCC(c1ccc(O)cc1)C(COCCOCCCl)c1ccc(O)cc1` (stereo unspecified) showed a relative binding affinity (RBA) of 6.7. `CCCCSCCCc1cc(C(CC)C(CC)c2ccc(O)cc2)ccc1O` (stereo unspecified) gave a relative binding affinity (RBA) of 3.6. Work on `CCCCCOC(=O)C(c1ccc(O)cc1)C(CC)c1ccc(O)cc1` (stereo unspecified) yielded a relative binding affinity (RBA) of 39. In the case of `CCC(c1ccc(O)cc1)C(CCOCCOCCCl)c1ccc(O)cc1` (stereo unspecified), the relative binding affinity (RBA) is reported as 16.6. Compound `CCC(c1ccc(O)cc1)C(CC)c1ccc(O)c(I)c1` (stereo unspecified) has a relative binding affinity (RBA) of 37. `CCC(c1ccc(O)cc1)C(CCO)c1ccc(O)cc1` (stereo unspecified) gave a relative binding affinity (RBA) of 16.2.
